Data as given in patent publication US11826430B2, “Anti-cancer nuclear hormone receptor-targeting compounds” (Nuvation Bio Inc., priority 2019, dated 2023).

Assays:
ER Alpha-LBD (GST) = ER Alpha-LBD (GST) (Homo sapiens (Human), UniProt P03372); assay: LanthaScreen TR-FRET ER Alpha Competitive Binding Assay; conditions: Fluormone ES2 Green tracer displacement; for IC50: read-out: ERα IC50
Protocol: e. Additional cell proliferation assays: Other cancer cell lines are tested in a cell proliferation assay. For example, LnCaP, PC-3, MCF-7, HCC1428, BT474, HCT-116, SK-OV-3 or OVCAR3 cancer cells are tested. Cells are cultured in medium recommended by the supplier (e.g., ATCC or JCRB Cell Bank), at 37° C. in a 5% CO2 environment. For the proliferation assay, cells are plated in the growth medium in 96 well plates. Seeding density is adjusted according to the cell type. 24 hr later, cells are treated, in triplicate or quadruplicate, with test articles prepared in a range of concentrations by series dilution of DMSO stock solutions in growth medium, and typically incubated for three to seven days, with test article-containing medium replaced after three or four days. The number of viable cells is measured using CellTiter Glo assay (CTG, Promega, Madison, WI) or similar. Cell viability data are plotted using GraphPad Prism (GraphPad Software, Inc., San Diego, CA). In addition, a nonlinear regression model with a sigmoidal dose response and variable slope within GraphPad Prism is used to calculate the IC50 value of individual test articles. Similarly, HEK-293 and HeLa calls can also be tested by methods known in the art. f. Nuclear translocation: LNCaP cells are plated on coverslips in 24 well plates in growth medium. Twenty-four hours after plating, medium is changed to RPMI+1% csFBS and the cells are maintained in this medium for two days. Medium is replaced again and the cells are treated. Cells are fixed 4 hours after treatment and the AR immunostained using AR N20 antibody (Santa Cruz Biotechnology, Santa Cruz, CA). Nucleus is stained with DAPI. Cells are imaged with a confocal microscope. g. ER binding assay: ERα binding was assessed by the LanthaScreen® TR-FRET ER Alpha Competitive Binding Assay at Thermo Fisher. In this assay, a terbium-labeled anti-GST antibody was used to indirectly label GST-tagged ER Alpha-ligand binding domain (LBD) by binding to its GST tag. Competitive binding to the ER Alpha-LBD (GST) was detected by a test compound's ability to displace a fluorescent ligand (Fluormone™ ES2 Green tracer) from the ER Alpha-LBD (GST), which results in a loss of FRET signal between the Tb-anti-GST antibody and the tracer. When running the assay, Fluormone™ ES2 Green tracer was added to ligand test compounds or solvent controls followed by addition of a mixture of the ER Alpha-LBD (GST) and terbium anti-GST antibody. After an incubation period at room temperature, the TR-FRET ratio of 520:495 emissions were calculated and used to determine the IC50 from a dose response curve of the compound. ER and PR functional assays: COS cells are transfected with 25 ng rat progesterone receptor (PR) and 250 ng GRE-LUC or 50 ng human estrogen receptor a (ER) and 250 ng ERE-LUC. Cells are also transfected with 10 ng CMV-renilla LUC in OptiMEM medium using lipofectamine transfection reagent. Twenty-four hours after transfection medium is changed to DME+5% csFBS w/o and treated with compounds in the presence of 0.1 nM progesterone for PR and estradiol for ER. Twenty four hours after treatment, cells are harvested and luciferase assay is performed using dual luciferase assay kit. The firefly values are normalized to renilla luciferase values and represented as a ratio. i. Evaluation of test compound in mouse xenograft model: To examine the in vivo antitumor activity of test compound, tumor growth experiments are performed in a cell line xenograft model. Male NOD SCID Gamma (NSG) mice are housed as five animals per cage and are allowed free access to water and commercial rodent chow. 22RV1 cells (grown in RPMI+10% FBS) mixed with 50% matrigel basement membrane are implanted subcutaneously in castrated mice. Alternatively, an antiandrogen resistant cell line other than 22RV1, such as MR49F or VCaP, is used. Once the tumors reach 200-500 mm^3, the animals are randomized and treated intraperitoneally with vehicle (DMSO:PEG-300:corn oil 10:30:60 ratio) or test compound. […]

Human recombinant PARP1 = Human recombinant PARP1 (Homo sapiens (Human), UniProt P09874); assay: RBC HotSpot PARP1 radioisotope-based filter binding assay; conditions: read-out: PARP1 IC50; 2.5 nM PARP1, histone H4, 10 μM 32P-NAD+
Human recombinant PARP1, sequence (P09874 whole entry): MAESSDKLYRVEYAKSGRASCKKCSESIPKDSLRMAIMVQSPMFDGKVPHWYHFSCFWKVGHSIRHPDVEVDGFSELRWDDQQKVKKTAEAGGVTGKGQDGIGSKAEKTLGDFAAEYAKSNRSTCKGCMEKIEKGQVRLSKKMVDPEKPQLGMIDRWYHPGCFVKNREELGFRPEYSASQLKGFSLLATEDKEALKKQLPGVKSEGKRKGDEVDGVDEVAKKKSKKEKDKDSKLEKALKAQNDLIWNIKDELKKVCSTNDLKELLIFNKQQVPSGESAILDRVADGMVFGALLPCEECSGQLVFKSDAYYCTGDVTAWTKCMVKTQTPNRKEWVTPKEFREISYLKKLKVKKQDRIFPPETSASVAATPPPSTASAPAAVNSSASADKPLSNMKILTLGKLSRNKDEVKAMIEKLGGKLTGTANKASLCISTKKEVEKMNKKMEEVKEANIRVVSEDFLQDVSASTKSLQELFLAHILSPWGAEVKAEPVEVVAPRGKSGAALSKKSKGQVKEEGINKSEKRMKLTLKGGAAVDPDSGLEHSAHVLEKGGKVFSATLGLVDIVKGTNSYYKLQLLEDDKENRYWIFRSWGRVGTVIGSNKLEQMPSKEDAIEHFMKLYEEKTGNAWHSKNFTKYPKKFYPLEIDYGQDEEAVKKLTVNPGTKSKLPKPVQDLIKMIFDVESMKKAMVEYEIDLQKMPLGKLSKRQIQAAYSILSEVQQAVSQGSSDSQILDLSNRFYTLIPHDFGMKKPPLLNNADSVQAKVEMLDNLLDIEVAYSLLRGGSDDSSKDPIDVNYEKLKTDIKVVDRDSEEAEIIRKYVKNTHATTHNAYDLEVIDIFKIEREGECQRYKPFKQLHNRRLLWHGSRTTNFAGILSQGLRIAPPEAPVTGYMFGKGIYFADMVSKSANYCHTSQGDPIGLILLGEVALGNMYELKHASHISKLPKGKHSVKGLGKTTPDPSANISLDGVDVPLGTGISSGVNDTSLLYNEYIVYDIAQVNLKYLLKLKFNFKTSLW
Protocol: (§3) RBC HotSpot Poly(ADP-ribose) Polymerases 1 (PARP1) and Poly(ADP-ribose) Polymerases 2 (PARP2) Assays: The assay was conducted at Reaction Biology Corporation (RBC; Malvern, PA). The assay principle is radioisotope-based filter binding assay where incorporation of radioisotope-labeled NAD^+ into the substrate captured on filter is detected after washout free NAD^+. Data were analyzed using Excel and GraphPad Prism software for IC50 curve fits. Each assay was conducted with PJ34 as a positive control. PARP1 assay: Human recombinant PARP1 at a final concentration of 2.5 nM was combined with histone H4 (20 μM) and test articles at various concentrations in reaction buffer (50 mM Tris-HCL, pH 8.0, 50 mM NaCl, 10 mM MgCl2, 1 mM DTT, 1% DMSO, and 20 μg/mL activated DNA). The solution was inoculated for 20 min at room temperature and the reaction initiated by adding [adenylate-^32P]-Nicotinamide Adenine Dinucleotide, ^32P-NAD^+ at a final concentration of 10 μM. After incubation for 2 hrs at room temperature, the reaction mixture was filtered and washed with 0.75% phosphoric acid for radioactivity detection. • ii. PARP2 assay: Human recombinant PARP2 at a final concentration of 2.5 nM was combined with histone H3 (20 μM) and test articles at various concentrations in reaction buffer (50 mM Tris-HCL, pH 8.0, 50 mM NaCl, 10 mM MgCl2, 1 mM DTT, 1% DMSO, and 20 μg/mL activated DNA). The solution was inoculated for 20 min at room temperature and the reaction was initiated by adding [adenylate-^32P]-Nicotinamide Adenine Dinucleotide, ^32P-NAD^+ at a final concentration of 10 μM. After incubation for 2 hrs at room temperature, the reaction mixture was filtered and washed with 0.75% phosphoric acid for radioactivity detection. b. AR binding assay: AR in LNCaP cytosol was used for determining the binding affinity of test articles and the reference compound—progesterone (Sigma, Cat: E2785, St. Louis, MO). IC50s were determined using 8 concentrations/compound. Cytosol was plated at 200 μg/well (100 μL) into a 96-well conical polypropylene plate (Agilent, Cat: 5042-1385, Santa Clara, CA) and mixed with 3 μL of test compound. After adding 100 μL of ^3H-methyltrienolone (PerkinElmer, Cat: NET590250UC, San Jose, CA), the plate was sealed and shaken at 300 rpm at 4° C. for 24 hours. Post incubation, 100 μL of radioligand adsorption buffer containing 10 mM Tris-HCl, pH 7.4; 1.5 mM EDTA; 1 mM DTT; 0.25% charcoal; 0.0025% dextran was added to individual well. Plate was shaken for 15 min at 4° C. followed by centrifugation at 3000 rpm for 30 min at 4° C. 150 μL of supernatant was transferred into scint-tube (PerkinElmer, Cat: 6000192) and mixed with 2 mL of Ultima Gold Cocktail (PerkinElmer, Cat: 6013329). Radioactivity was counted using a TriCarb 2910 TR scintillation counter (PerkinElmer). Inhibition of the radioactivity by test articles were calculated using the equation below: % Inhibition=(1−(Assay well-Average_LC)/(Average_HC-Average_LC))×100%. IC50 values were calculated and graphed using the model “log(inhibitor) vs. response—Variable slope” included in GraphPad Prism 5 (San Diego, CA). […] Ki=IC50/(1+[L]/Kd) c.

Human recombinant PARP2 = Human recombinant PARP2 (Homo sapiens (Human), UniProt Q9UGN5); assay: RBC HotSpot PARP2 radioisotope-based filter binding assay; conditions: read-out: PARP2 IC50; 2.5 nM PARP2, histone H3, 10 μM 32P-NAD+
Human recombinant PARP2, sequence (Q9UGN5 whole entry): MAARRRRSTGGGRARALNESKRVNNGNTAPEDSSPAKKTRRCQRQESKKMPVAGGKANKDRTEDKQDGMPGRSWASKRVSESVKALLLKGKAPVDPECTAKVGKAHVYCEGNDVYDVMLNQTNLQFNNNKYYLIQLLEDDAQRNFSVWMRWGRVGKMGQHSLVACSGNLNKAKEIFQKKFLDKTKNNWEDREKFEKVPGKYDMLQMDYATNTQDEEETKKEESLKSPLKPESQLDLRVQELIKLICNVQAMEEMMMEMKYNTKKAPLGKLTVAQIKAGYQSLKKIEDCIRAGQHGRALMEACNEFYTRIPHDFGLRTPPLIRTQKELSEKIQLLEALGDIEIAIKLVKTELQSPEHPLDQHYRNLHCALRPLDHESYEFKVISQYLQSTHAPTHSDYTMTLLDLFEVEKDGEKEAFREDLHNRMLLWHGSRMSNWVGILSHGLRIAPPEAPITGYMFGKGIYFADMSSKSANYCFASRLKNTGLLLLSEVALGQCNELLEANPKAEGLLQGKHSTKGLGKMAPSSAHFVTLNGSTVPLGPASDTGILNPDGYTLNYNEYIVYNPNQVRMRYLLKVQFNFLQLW
Protocol: as §3

22RV1 cells = assay: Cell proliferation assay, CellTiter Glo; format: cell-based; conditions: Homo sapiens, 22Rv1, 72 h; cell growth inhibition, three days of treatment
Protocol: (§1) a. […] IC50s were determined using 8 concentrations/compound. […] Ki=IC50/(1+[L]/Kd) c.
(§2) Cells were plated at varying density in the respective growth medium in 96 well plates. 24 hr later, cells were treated, in triplicate or quadruplicate, with test articles prepared in a range of concentrations by series dilution of DMSO stock solutions in growth medium and incubated for three to seven days. The number of viable 22RV1 and HT-29 cells was measured using CellTiter Glo assay (CTG, Promega, Madison, WI) after three days of treatment. Cell viability data were plotted using GraphPad Prism (GraphPad Software, Inc., San Diego, CA). In addition, a nonlinear regression model with a sigmoidal dose response and variable slope within GraphPad Prism was used to calculate the IC50 value of individual test articles.

HT-29 cells = assay: Cell proliferation assay, CellTiter Glo; format: cell-based; conditions: Homo sapiens, HT-29, 72 h; cell growth inhibition, three days of treatment
Protocol: as §1, §2

AR in LNCaP cytosol = AR in LNCaP cytosol (Homo sapiens (Human), UniProt P10275, T878A); assay: AR binding assay (3H-methyltrienolone displacement); conditions: read-out: AR IC50, 4° C. for 24 hours
AR in LNCaP cytosol, sequence (P10275 whole entry T878A): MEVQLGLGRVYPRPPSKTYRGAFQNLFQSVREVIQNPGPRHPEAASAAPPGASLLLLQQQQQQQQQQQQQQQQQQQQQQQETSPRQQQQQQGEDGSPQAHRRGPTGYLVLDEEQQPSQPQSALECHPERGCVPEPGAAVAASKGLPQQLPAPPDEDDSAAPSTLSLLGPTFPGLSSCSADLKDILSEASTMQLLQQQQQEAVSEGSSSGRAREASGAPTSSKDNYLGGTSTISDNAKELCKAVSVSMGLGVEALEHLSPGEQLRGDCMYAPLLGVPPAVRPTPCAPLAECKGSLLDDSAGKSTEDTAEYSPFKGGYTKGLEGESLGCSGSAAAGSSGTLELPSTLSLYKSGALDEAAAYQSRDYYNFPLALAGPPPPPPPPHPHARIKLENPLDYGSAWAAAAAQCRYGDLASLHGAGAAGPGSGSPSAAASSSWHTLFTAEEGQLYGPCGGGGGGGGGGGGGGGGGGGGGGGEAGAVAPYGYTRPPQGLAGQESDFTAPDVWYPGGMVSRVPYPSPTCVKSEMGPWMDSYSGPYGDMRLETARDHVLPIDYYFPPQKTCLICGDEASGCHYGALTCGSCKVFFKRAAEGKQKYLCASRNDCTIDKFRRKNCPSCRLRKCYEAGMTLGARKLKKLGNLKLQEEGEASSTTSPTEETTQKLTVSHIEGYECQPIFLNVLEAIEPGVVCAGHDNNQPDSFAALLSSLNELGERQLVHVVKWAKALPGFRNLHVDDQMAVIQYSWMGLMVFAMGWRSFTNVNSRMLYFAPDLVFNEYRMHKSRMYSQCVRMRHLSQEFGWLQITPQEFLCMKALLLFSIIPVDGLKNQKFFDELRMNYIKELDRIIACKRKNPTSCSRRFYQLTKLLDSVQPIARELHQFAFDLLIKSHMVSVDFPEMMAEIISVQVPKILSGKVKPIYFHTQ
Protocol: as §3

ER Alpha-LBD (GST), sequence (P03372 311-547): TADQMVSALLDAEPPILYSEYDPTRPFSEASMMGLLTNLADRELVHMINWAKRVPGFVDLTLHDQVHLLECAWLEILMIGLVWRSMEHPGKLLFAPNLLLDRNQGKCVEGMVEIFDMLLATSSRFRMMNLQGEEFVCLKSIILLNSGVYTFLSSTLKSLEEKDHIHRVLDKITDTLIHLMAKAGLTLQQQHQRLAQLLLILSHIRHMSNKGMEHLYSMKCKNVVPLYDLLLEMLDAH

Compound | IC50 (ER Alpha-LBD (GST)) [µM] | IC50 (Human recombinant PARP1) [µM] | IC50 (Human recombinant PARP2) [µM] | IC50 (22RV1 cells) [µM] | IC50 (HT-29 cells) [µM] | IC50 (AR in LNCaP cytosol) [µM] | Ki (ER Alpha-LBD (GST); read-out: ERα Ki) [µM]
C[C@H]1Cc2c([nH]c3ccccc23)[C@H](c2c(F)cc(OCCN3CCN(C(=O)c4cc(Cc5n[nH]c(=O)c6ccccc56)ccc4F)CC3)cc2F)N1CC(C)(C)F (stereo in doubt) [Compound 2.51, 4-(3-(4-(2-(3,5-difluoro-4-((1S,3S)-2-(2-fluoro-2-methylpropyl)-3-methyl-2,3,4,9-tetrahydro-1H-pyrido[3,4-b]indol-1-yl)phenoxy)ethyl)piperazine-1-carbonyl)-4-fluorobenzyl)phthalazin-1(2H)-one] | 0.044 | 0.028 | 0.004 |  |  |  | 
Cn1ncnc1[C@H]1c2n[nH]c(=O)c3cc(F)cc(c23)N[C@@H]1c1ccc(N2C(=S)N(c3ccc(C#N)c(C(F)(F)F)c3)C(=O)C2(C)C)cc1 [Compound 1.2a, 4-(3-(4-((8S,9R)-5-fluoro-9-(1-methyl-1H-1,2,4-triazol-5-yl)-3-oxo-3,7,8,9-tetrahydro-2H-pyrido[4,3,2-de]phthalazin-8-yl)phenyl)-4,4-dimethyl-5-oxo-2-thioxoimidazolidin-1-yl)-2-(trifluoromethyl)benzonitrile] |  |  | 0.0003 | > 10 | > 10 | > 3.75 | 
C[C@](O)(CS(=O)(=O)C1CCN(C(=O)c2cc(Cc3n[nH]c(=O)c4ccccc34)ccc2F)CC1)C(=O)Nc1ccc(C#N)c(C(F)(F)F)c1 [Compound 1.4, (R)—N-(4-cyano-3-(trifluoromethyl)phenyl)-3-(1-(2-fluoro-5-((4-oxo-3,4-dihydrophthalazin-1-yl)methyl)benzoyl)piperidin-4-ylsulfonyl)-2-hydroxy-2-methylpropanamide] |  | 0.0006 | 0.0002 | 21 | > 30 | 1.03 | 
C[C@](O)(COC1CCN(C(=O)c2cc(Cc3n[nH]c(=O)c4ccccc34)ccc2F)CC1)C(=O)Nc1ccc(C#N)c(C(F)(F)F)c1 [Compound 1.5, (S)—N-(4-cyano-3-(trifluoromethyl)phenyl)-3-(1-(2-fluoro-5-((4-oxo-3,4-dihydrophthalazin-1-yl)methyl)benzoyl)piperidin-4-yloxy)-2-hydroxy-2-methylpropanamide] |  | 0.002 | 0.0004 | 14 | 20 | 6.67 | 
CC1(C)C(=O)N(c2ccc(C#N)c(C(F)(F)F)c2)C(=S)N1CCNC(=O)c1cc(Cc2n[nH]c(=O)c3ccccc23)ccc1F [Compound 1.6, N-(2-(3-(4-cyano-3-(trifluoromethyl)phenyl)-5,5-dimethyl-4-oxo-2-thioxoimidazolidin-1-yl)ethyl)-2-fluoro-5-((4-oxo-3,4-dihydrophthalazin-1-yl)methyl)benzamide] |  | 0.005 | 0.0006 | 6 | 10 | 0.094 | 
CC1(C)C(=O)N(c2ccc([N+](=O)[O-])c(C(F)(F)F)c2)C(=O)N1CCNC(=O)c1cc(Cc2n[nH]c(=O)c3ccccc23)ccc1F [Compound 1.7, N-(2-(5,5-dimethyl-3-(4-nitro-3-(trifluoromethyl)phenyl)-2,4-dioxoimidazolidin-1-yl)ethyl)-2-fluoro-5-((4-oxo-3,4-dihydrophthalazin-1-yl)methyl)benzamide] |  | 0.007 | 0.001 | 3 | 10 | 4.62 | 
CC/C(=C(/c1ccc(OCCCCCC(=O)N2CCN(C(=O)c3cc(Cc4n[nH]c(=O)c5ccccc45)ccc3F)CC2)cc1)c1ccc2[nH]ncc2c1)c1ccc(Cl)cc1F [Compound 2.49, (E)-4-(3-(4-(6-(4-(2-(4-chloro-2-fluorophenyl)-1-(1H-indazol-5-yl)but-1-en-1-yl)phenoxy)hexanoyl)piperazine-1-carbonyl)-4-fluorobenzyl)phthalazin-1(2H)-one] | 0.0044 | 0.204 | 0.009 |  |  |  | 
C[C@@H]1Cc2c([nH]c3ccccc23)[C@@H](c2c(F)cc(OCCCCCC(=O)N3CCN(C(=O)c4cc(Cc5n[nH]c(=O)c6ccccc56)ccc4F)CC3)cc2F)N1CC(C)(C)F [Compound 2.50, 4-(3-(4-(6-(3,5-difluoro-4-((1R,3R)-2-(2-fluoro-2-methylpropyl)-3-methyl-2,3,4,9-tetrahydro-1H-pyrido[3,4-b]indol-1-yl)phenoxy)hexanoyl)piperazine-1-carbonyl)-4-fluorobenzyl)phthalazin-1(2H)-one] | 0.0057 | 0.021 | 0.003 |  |  |  | 
CC/C(=C(/c1ccc(OCCCCCCN2CCN(C(=O)c3cc(Cc4n[nH]c(=O)c5ccccc45)ccc3F)CC2)cc1)c1ccc2[nH]ncc2c1)c1ccc(Cl)cc1F [Compound 2.52, (E)-4-(3-(4-(6-(4-(2-(4-chloro-2-fluorophenyl)-1-(1H-indazol-5-yl)but-1-enyl)phenoxy)hexyl)piperazine-1-carbonyl)-4-fluorobenzyl)phthalazin-1(2H)-one] | 0.0053 | 0.187 | 0.029 |  |  |  | 
CC/C(=C(/c1ccc(OCCCOCC(=O)N2CCN(C(=O)c3cc(Cc4n[nH]c(=O)c5ccccc45)ccc3F)CC2)cc1)c1ccc2[nH]ncc2c1)c1ccc(Cl)cc1F [Compound 2.53, (E)-4-(3-(4-(2-(3-(4-(2-(4-chloro-2-fluorophenyl)-1-(1H-indazol-5-yl)but-1-enyl)phenoxy)propoxy)acetyl)piperazine-1-carbonyl)-4-fluorobenzyl)phthalazin-1(2H)-one] | 0.0034 | 0.095 | 0.006 |  |  |  | 
CC/C(=C(/c1ccc(OCCCOCCN2CCN(C(=O)c3cc(Cc4n[nH]c(=O)c5ccccc45)ccc3F)CC2)cc1)c1ccc2[nH]ncc2c1)c1ccc(Cl)cc1F [Compound 2.54, (E)-4-(3-(4-(2-(3-(4-(2-(4-chloro-2-fluorophenyl)-1-(1H-indazol-5-yl)but-1-enyl)phenoxy)propoxy)ethyl)piperazine-1-carbonyl)-4-fluorobenzyl)phthalazin-1(2H)-one] | 0.0641 | 0.04 | 0.005 |  |  |  | 0.0345
